Test in all cases: Competitive isoTOP-ABPP, cell lysates
Holding throughout (format): binding

One experiment concerns the target T1, MGMT C150 (P16455) (Homo sapiens, UniProt P16455).
T1 sequence (P16455 1-207): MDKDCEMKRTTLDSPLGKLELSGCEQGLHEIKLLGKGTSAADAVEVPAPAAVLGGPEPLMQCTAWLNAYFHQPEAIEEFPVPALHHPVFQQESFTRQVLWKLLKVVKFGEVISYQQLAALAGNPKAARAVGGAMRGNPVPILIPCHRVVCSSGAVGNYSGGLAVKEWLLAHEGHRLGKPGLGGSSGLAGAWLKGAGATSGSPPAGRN
The settings on record: for isoTOP-ABPP reactivity ratio, P16455_C150 / isoTOP-ABPP reactivity profile ratio, P16455_C150: 500 μm, in-vitro_ramos.

In the next experiment the target is STAT3 C259 (P40763) (Homo sapiens, UniProt P40763). The settings on record: 500 μm.
Sequence of STAT3 C259 (P40763) (P40763 whole entry): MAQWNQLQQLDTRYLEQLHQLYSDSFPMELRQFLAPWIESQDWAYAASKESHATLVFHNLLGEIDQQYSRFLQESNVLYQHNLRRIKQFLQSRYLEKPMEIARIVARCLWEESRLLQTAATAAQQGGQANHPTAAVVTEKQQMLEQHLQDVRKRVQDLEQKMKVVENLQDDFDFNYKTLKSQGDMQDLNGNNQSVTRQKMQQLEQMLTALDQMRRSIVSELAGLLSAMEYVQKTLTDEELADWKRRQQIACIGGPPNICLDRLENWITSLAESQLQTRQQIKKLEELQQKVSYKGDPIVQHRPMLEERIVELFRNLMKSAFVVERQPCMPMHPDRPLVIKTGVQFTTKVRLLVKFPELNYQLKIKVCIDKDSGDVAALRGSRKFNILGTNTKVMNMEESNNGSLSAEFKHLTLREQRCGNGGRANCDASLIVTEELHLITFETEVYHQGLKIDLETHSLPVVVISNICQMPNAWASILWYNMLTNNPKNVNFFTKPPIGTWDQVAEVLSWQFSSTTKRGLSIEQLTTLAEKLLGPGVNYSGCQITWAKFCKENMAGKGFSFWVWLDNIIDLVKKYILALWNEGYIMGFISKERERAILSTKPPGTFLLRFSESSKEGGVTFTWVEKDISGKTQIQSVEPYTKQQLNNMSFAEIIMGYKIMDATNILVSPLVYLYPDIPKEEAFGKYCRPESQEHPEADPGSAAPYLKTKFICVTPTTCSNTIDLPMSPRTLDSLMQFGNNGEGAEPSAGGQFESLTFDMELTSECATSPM
A further experiment has as its target XPO1 C34 (O14980) (Homo sapiens, UniProt O14980). The settings on record: for isoTOP-ABPP reactivity ratio, O14980_C34 / isoTOP-ABPP reactivity profile ratio, O14980_C34: 500 μm; for isoTOP-ABPP ratio, O14980_C34: 500 μM, invitro.
The target of another experiment is T2, PDIA6 C190 (Q15084) (Homo sapiens, UniProt Q15084).
T2 sequence (Q15084 20-440): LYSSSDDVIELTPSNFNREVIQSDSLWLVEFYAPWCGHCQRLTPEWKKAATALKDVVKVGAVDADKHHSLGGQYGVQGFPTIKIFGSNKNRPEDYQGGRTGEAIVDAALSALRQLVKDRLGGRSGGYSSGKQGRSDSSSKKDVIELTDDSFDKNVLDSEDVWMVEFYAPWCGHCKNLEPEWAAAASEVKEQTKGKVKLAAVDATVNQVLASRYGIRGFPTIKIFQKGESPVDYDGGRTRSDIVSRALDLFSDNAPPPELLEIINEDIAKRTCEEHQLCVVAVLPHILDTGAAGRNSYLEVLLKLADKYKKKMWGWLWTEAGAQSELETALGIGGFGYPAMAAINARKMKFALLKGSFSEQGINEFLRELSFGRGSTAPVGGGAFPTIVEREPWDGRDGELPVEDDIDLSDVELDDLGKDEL
The settings on record: for isoTOP-ABPP reactivity ratio, Q15084_C190 / isoTOP-ABPP reactivity profile ratio, Q15084_C190: 500 μm.

The target in a further experiment is IDH1 C269 (O75874) (Homo sapiens, UniProt O75874).
Sequence of IDH1 C269 (O75874) (O75874 whole entry): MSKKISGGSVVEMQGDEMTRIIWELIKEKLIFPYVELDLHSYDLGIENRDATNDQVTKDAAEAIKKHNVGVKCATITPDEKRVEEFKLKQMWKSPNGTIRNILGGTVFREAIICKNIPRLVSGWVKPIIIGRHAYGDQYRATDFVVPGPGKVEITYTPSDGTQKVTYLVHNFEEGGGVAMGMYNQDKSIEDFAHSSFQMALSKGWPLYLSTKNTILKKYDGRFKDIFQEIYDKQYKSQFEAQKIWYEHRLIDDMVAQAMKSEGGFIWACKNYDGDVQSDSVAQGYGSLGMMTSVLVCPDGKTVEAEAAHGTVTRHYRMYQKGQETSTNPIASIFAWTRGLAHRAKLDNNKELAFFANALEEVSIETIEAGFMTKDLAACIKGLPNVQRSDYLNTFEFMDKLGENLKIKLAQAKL
In the next experiment the target is GSTP1 C48 (P09211) (Homo sapiens, UniProt P09211). The settings on record: for isoTOP-ABPP reactivity ratio, P09211_C48 / isoTOP-ABPP reactivity profile ratio, P09211_C48: 500 μm; for isoTOP-ABPP ratio, P09211_C48: 500 μM, invitro.
Sequence of GSTP1 C48 (P09211) (P09211 whole entry): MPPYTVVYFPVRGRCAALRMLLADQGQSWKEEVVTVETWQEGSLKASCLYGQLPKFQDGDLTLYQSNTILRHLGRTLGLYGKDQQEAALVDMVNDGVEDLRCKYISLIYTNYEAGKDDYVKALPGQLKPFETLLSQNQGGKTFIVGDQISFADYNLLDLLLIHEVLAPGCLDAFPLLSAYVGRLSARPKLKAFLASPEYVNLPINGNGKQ
For the next experiment, the target named is PRMT1 C109 (Q99873) (Homo sapiens, UniProt Q99873). The settings on record: for isoTOP-ABPP reactivity ratio, Q99873_C109 / isoTOP-ABPP reactivity profile ratio, Q99873_C109: 500 μm; for isoTOP-ABPP ratio, Q99873_C109: 500 μM, invitro.
Sequence of PRMT1 C109 (Q99873) (Q99873 whole entry): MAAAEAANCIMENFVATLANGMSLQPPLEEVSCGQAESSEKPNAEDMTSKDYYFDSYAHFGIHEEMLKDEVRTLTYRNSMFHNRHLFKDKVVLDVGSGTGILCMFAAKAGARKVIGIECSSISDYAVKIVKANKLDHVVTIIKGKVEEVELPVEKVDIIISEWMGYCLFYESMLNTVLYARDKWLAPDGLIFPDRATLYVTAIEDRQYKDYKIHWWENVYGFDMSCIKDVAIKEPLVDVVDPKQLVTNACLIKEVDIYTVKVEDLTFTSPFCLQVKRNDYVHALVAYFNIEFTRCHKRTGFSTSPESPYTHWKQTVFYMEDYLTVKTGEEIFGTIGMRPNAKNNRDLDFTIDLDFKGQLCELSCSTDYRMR
Another experiment concerns the target T3, PCK2 C306 (Q16822) (Homo sapiens, UniProt Q16822).
T3 sequence (Q16822 33-640): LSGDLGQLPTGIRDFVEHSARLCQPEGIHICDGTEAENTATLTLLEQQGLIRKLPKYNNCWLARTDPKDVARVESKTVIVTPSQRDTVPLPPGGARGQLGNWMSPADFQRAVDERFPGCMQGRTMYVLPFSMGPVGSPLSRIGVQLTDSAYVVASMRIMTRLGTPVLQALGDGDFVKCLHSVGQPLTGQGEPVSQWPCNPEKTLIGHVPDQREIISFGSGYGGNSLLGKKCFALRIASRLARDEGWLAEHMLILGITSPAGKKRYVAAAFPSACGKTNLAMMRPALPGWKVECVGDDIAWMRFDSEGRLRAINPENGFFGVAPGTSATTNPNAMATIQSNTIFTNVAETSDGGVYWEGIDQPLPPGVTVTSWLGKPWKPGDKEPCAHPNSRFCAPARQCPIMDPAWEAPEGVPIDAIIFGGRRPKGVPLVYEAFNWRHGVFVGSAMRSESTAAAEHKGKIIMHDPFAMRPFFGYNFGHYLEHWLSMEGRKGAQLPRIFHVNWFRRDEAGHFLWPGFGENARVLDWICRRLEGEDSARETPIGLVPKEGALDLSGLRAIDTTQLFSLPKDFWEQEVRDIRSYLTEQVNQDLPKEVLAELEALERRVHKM
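Throughout, for isoTOP-ABPP reactivity profile ratio, P09211 C48: Heavy/light ratio DMSO over fragment-treated so higher means more cysteine engagement.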
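Throughout, for isoTOP-ABPP reactivity profile ratio, Q15084 C190: Heavy/light ratio DMSO over fragment-treated so higher means more cysteine engagement.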
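Throughout, for isoTOP-ABPP reactivity profile ratio, Q99873 C109: Heavy/light ratio DMSO over fragment-treated so higher means more cysteine engagement.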

Sequence of XPO1 C34 (O14980) (O14980 whole entry): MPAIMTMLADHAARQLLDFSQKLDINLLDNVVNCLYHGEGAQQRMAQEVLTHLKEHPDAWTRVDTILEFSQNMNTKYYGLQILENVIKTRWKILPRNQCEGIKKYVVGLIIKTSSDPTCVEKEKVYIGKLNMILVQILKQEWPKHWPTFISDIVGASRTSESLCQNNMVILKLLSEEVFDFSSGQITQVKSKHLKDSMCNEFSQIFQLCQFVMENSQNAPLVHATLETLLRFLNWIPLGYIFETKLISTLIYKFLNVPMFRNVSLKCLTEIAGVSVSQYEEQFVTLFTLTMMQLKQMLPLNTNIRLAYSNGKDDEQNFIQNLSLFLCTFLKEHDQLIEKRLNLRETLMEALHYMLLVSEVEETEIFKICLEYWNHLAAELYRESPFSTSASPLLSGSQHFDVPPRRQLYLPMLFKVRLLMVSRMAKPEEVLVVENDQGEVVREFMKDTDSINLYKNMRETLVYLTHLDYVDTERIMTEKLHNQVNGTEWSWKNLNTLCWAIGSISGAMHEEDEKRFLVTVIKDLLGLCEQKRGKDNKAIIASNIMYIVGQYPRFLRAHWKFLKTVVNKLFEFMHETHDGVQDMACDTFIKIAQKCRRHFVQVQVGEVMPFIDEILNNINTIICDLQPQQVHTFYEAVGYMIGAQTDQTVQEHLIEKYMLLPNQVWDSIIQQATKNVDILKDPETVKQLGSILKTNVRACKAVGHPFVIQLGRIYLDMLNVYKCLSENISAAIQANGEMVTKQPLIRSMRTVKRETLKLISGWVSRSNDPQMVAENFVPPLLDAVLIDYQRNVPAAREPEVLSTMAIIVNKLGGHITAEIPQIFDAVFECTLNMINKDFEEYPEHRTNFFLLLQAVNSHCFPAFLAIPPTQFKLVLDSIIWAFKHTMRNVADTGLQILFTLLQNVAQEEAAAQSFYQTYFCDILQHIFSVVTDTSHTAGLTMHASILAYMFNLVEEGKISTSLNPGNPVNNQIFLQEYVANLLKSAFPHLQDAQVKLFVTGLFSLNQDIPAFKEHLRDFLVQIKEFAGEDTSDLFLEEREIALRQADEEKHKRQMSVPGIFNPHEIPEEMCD

On to `C=CC(=O)Nc1cc(C)c(Br)cc1C` [compound 40], for which, at MGMT C150 (P16455), the “isoTOP-ABPP reactivity ratio, P16455_C150” value was 1.9. Also, at STAT3 C259 (P40763) (in-vitro_ramos), the “isoTOP-ABPP reactivity ratio, P40763_C259” value is reported as 1.4. The “isoTOP-ABPP reactivity ratio, O14980_C34” value on XPO1 C34 (O14980) (in-vitro_ramos) is listed as 1.1; at XPO1 C34 (O14980) (in-vitro_ramos_231) it was 0.8. The “isoTOP-ABPP reactivity ratio, Q15084_C190” value was 1.7 at PDIA6 C190 (Q15084) (in-vitro_ramos) and 0.9 at PDIA6 C190 (Q15084) (in-vitro_ramos_231). For the same compound, the “isoTOP-ABPP reactivity ratio, O75874_C269” value at IDH1 C269 (O75874) (500 μm, in-vitro_ramos) is recorded as 0.8. For the same compound, the “isoTOP-ABPP reactivity ratio, P09211_C48” value at GSTP1 C48 (P09211) (in-vitro_ramos) and at GSTP1 C48 (P09211) (in-vitro_ramos_231) was 1.6 throughout. Further, the figures for the “isoTOP-ABPP reactivity ratio, Q99873_C109” value on PRMT1 C109 (Q99873) (in-vitro_ramos) and on PRMT1 C109 (Q99873) (in-vitro_ramos_231) were 1.3 and 0.8, respectively.
`C=CC(=O)N1CCC(Cc2ccccc2)CC1` [compound 53]: the “isoTOP-ABPP reactivity profile ratio, P16455_C150” value at MGMT C150 (P16455) worked out at 1.1. In addition, the “isoTOP-ABPP reactivity profile ratio, P40763_C259” value at STAT3 C259 (P40763) (in-vitro_ramos) came out at 1.9. Moreover, the “isoTOP-ABPP reactivity profile ratio, O14980_C34” value at XPO1 C34 (O14980) (in-vitro_ramos) is listed as 1.0; on XPO1 C34 (O14980) (in-vitro_ramos_231), 0.9. Further, the “isoTOP-ABPP reactivity profile ratio, Q16822_C306” value at PCK2 C306 (Q16822) (500 μm, in-vitro_ramos_231) is 1.3. The “isoTOP-ABPP reactivity profile ratio, Q15084_C190” value at PDIA6 C190 (Q15084) (in-vitro_ramos) and at PDIA6 C190 (Q15084) (in-vitro_ramos_231) was 1.0 each time. Besides, the “isoTOP-ABPP reactivity profile ratio, P09211_C48” value at GSTP1 C48 (P09211) (in-vitro_ramos) is reported as 1.2; on GSTP1 C48 (P09211) (in-vitro_ramos_231), 2.3. Further, the entries for the “isoTOP-ABPP reactivity profile ratio, Q99873_C109” value on PRMT1 C109 (Q99873) (in-vitro_ramos) and at PRMT1 C109 (Q99873) (in-vitro_ramos_231) were 1.1 and 0.9, respectively.
Consider `CC(C)(C)c1cc(NC(=O)CCl)on1` [compound 32], for which the “isoTOP-ABPP reactivity ratio, P16455_C150” value at MGMT C150 (P16455) worked out at 20.0. The “isoTOP-ABPP reactivity ratio, P40763_C259” value at STAT3 C259 (P40763) (in-vitro_ramos_231) was 10.2. In addition, the “isoTOP-ABPP reactivity ratio, O14980_C34” value at XPO1 C34 (O14980) (in-vitro_ramos) amounted to 1.0; at XPO1 C34 (O14980) (in-vitro_ramos_231) it was 1.2. The “isoTOP-ABPP reactivity ratio, Q16822_C306” value on PCK2 C306 (Q16822) (500 μm, in-vitro_ramos_231) is 3.2. In addition, the “isoTOP-ABPP reactivity ratio, Q15084_C190” value on PDIA6 C190 (Q15084) (in-vitro_ramos) and at PDIA6 C190 (Q15084) (in-vitro_ramos_231) was 20.0 each time. Also, the entries for the “isoTOP-ABPP reactivity ratio, P09211_C48” value at GSTP1 C48 (P09211) (in-vitro_ramos) and at GSTP1 C48 (P09211) (in-vitro_ramos_231) were 1.4 and 1.9, respectively. The “isoTOP-ABPP reactivity ratio, Q99873_C109” value at PRMT1 C109 (Q99873) (in-vitro_ramos) is recorded as 1.8; on PRMT1 C109 (Q99873) (in-vitro_ramos_231), 1.7.
Take `COc1cc(NC(=O)CCl)cc(OC)c1` [compound 43]: the “isoTOP-ABPP reactivity profile ratio, P16455_C150” value at MGMT C150 (P16455) came to 20.0. Also, the “isoTOP-ABPP reactivity profile ratio, O14980_C34” value on XPO1 C34 (O14980) (in-vitro_ramos_231) is on record as 1.1. In addition, at PCK2 C306 (Q16822) (500 μm, in-vitro_ramos_231), the “isoTOP-ABPP reactivity profile ratio, Q16822_C306” value is on record as 3.3. Moreover, the “isoTOP-ABPP reactivity profile ratio, Q15084_C190” value at PDIA6 C190 (Q15084) (in-vitro_ramos_231) amounted to 20.0. Also, at IDH1 C269 (O75874) (500 μm, in-vitro_ramos_231), the “isoTOP-ABPP reactivity profile ratio, O75874_C269” value is 0.8. Further, the “isoTOP-ABPP reactivity profile ratio, P09211_C48” value was found to be 2.2 on GSTP1 C48 (P09211) (in-vitro_ramos) and 4.1 at GSTP1 C48 (P09211) (in-vitro_ramos_231). The “isoTOP-ABPP reactivity profile ratio, Q99873_C109” value on PRMT1 C109 (Q99873) (in-vitro_ramos) came out at 1.2; on PRMT1 C109 (Q99873) (in-vitro_ramos_231), 1.4.
`C=CC(=O)N(c1ccccc1)c1ccc(Br)cc1` [compound 5]: the “isoTOP-ABPP ratio, P16455_C150” value at MGMT C150 (P16455) (500 μM, invitro, ramos) turned out to be 9.6. For the same compound, the “isoTOP-ABPP ratio, O14980_C34” value on XPO1 C34 (O14980) (231) worked out at 1.1; at XPO1 C34 (O14980) (ramos), 1.2. The “isoTOP-ABPP ratio, Q16822_C306” value on PCK2 C306 (Q16822) (500 μM, invitro, 231) amounted to 1.7. Further, at PDIA6 C190 (Q15084) (500 μM, invitro, ramos), the “isoTOP-ABPP ratio, Q15084_C190” value amounted to 1.7. Besides, the “isoTOP-ABPP ratio, O75874_C269” value at IDH1 C269 (O75874) (500 μM, invitro, ramos) was 0.8. The figures for the “isoTOP-ABPP ratio, P09211_C48” value at GSTP1 C48 (P09211) (231) and on GSTP1 C48 (P09211) (ramos) were 2.2 and 2.4, respectively. Moreover, the “isoTOP-ABPP ratio, Q99873_C109” value at PRMT1 C109 (Q99873) (231) is on record as 0.9; at PRMT1 C109 (Q99873) (ramos), 1.3.
Consider `O=C(CCl)Nc1ccc(-c2ccccc2)cc1` [compound 52], for which, at MGMT C150 (P16455), the “isoTOP-ABPP reactivity profile ratio, P16455_C150” value came to 2.2. In addition, the “isoTOP-ABPP reactivity profile ratio, P40763_C259” value at STAT3 C259 (P40763) (in-vitro_ramos_231) worked out at 2.2. Moreover, the figures for the “isoTOP-ABPP reactivity profile ratio, O14980_C34” value on XPO1 C34 (O14980) (in-vitro_ramos) and on XPO1 C34 (O14980) (in-vitro_ramos_231) were 1.1 and 1.0, respectively. Also, the “isoTOP-ABPP reactivity profile ratio, Q16822_C306” value is given as 1.6 at PCK2 C306 (Q16822) (500 μm, in-vitro_ramos) and 1.3 on PCK2 C306 (Q16822) (500 μm, in-vitro_ramos_231). Moreover, the figures for the “isoTOP-ABPP reactivity profile ratio, Q15084_C190” value at PDIA6 C190 (Q15084) (in-vitro_ramos) and at PDIA6 C190 (Q15084) (in-vitro_ramos_231) were 1.9 and 1.0, respectively. The “isoTOP-ABPP reactivity profile ratio, P09211_C48” value at GSTP1 C48 (P09211) (in-vitro_ramos) came out at 1.9; on GSTP1 C48 (P09211) (in-vitro_ramos_231), 1.0. The “isoTOP-ABPP reactivity profile ratio, Q99873_C109” value on PRMT1 C109 (Q99873) (in-vitro_ramos) was found to be 1.3; at PRMT1 C109 (Q99873) (in-vitro_ramos_231), 0.9.
